# Laboratory results: patent EP2039683B1, “Vasculostatic agents and methods of use thereof” (Targegen, Inc., priority 2002, dated 2004)
# Legend:
# [1] = tested on: angiogenesis; assay: Matrigel plug angiogenesis model, FITC-lectin quantification; assay type: in vivo, Athymic WeHi (nu/nu) mice; settings: 10 mg/kg intraperitoneally bid for four days; matrigel with 400 ng/ml bFGF or VEGF
# Protocol: FIGURE 13 (omitted) and 14 (omitted) illustrate the effects of invention compounds for their capacity to inhibit angiogenesis in vivo. […] Tumor extracellular matrix infused with the 160 ng of the described growth factors were injected subcutaneously in a Balb/C mouse. The described invention compound was injected daily at the described concentration for 5 days. After 5 days the animals were sacrificed and angiogenesis quantified based on the binding of fluorescently labeled, endothelium specific FITC-lectin. In the graph, compound A is 6,7-bis(4-hydroxyphenyl)-pteridin-4-ylamine sulfate salt.
# Referring to FIGURES 13 (omitted) and 14 (omitted), a murine model of angiogenesis was used to screen compounds for their capacity to inhibit angiogenesis. […] In the graph, compound A is 6,7-bis(4-hydroxyphenyl)-pteridin-4-ylamine sulfate salt. Athymic WeHi (nu/nu) mice were first injected with 400; jls of an ice- cold tumor-derived extracellular matrix substrate, matrigel (Becton-Dickinson) infused with 400 ng/ml of bFGF or VEGF (R & D Systems) which rapidly solidifies into a subdermal plug at body temperature. […] Twenty minutes after injection of the lectin, mice were euthanized, matrigel plugs were then extracted, solublized in PBS with mechanical grinding and the fluorescent content of individual plugs was quantified. […]
# [2] = tested on: CTLL2; assay: IL-2 dependent T-cell proliferation, XTT assay; assay type: cell-based, mouse; settings: 96 hours, 50 pg human recombinant IL-2
# [3] = Cerebral stroke model, permanent middle cerebral artery occlusion; assay type: in vivo, mice; settings: 1 mg/kg BW IV 60 min after ligation; for Infarct area in mm^3 (mean ± SEM): twenty four hours later; for % Infarct reduction: versus vehicle of the same study
# Protocol: Cerebral strokes were created in mice by permanent ligation of the middle cerebral artery using a cauterizing tool, followed 60 min later by IV injection of either vehicle alone (50% PEG400 in water) or test agents (at 1 mg/kg BW). Twenty four hours later, brains were sectioned and stained using triphenyltetrazolium chloride to delineate viable from infarcted tissue.
# [4] = tested on: IL-2 induced VLS; assay: IL-2 induced vascular leak syndrome, organ wet/dry weight; settings: compound D in the 1 mg/kg range, compound E in the 0.1 mg/kg range; for reduction of VLS in the heart / reduction of VLS in the spleen: 9 injections of murine IL-2 and/or compound over 4 days
# [5] = tested on: histamine as agonist; assay: Miles assay, histamine as agonist; assay type: in vivo, Sprague-Dawley rats; settings: 1.5 mg/kg; histamine 10 µg/injection site; vehicle 12
# Protocol: Sprague-Dawley rats were first injected IV with vehicle alone or test agent, followed by IV injection of Evans blue dye, followed by intradermal injections of saline and VEGF (200 ng/injection site) along both shaved flanks.
# The ability of test agents to influence edema induced by agonists other than VEGF was also tested.
# The ability of test agent to influence vascular edema was tested as above, except that the ability to block edema was tested using either VEGF or histamine as the agonist (200 ng and 10 µg/injection site, respectively).
# [6] = Oleic acid induced ARDS lung edema, wet/dry weight; assay type: in vivo, NIH Swiss mice; settings: 0.5 mg/kg range; 1.5 mg/kg Oleic Acid intraperitoneal, lungs collected after four hours
# Protocol: FIGURE 12 (omitted) illustrates the effects of invention compounds for their capacity to inhibit edema associated with Acute Respiratory Distress Syndrome (ARDS). NIH Swiss mice were given an intraperitoneal injection of 1.5 mg/kg Oleic Acid of (in this example formulated in saline) and/or invention compounds.
# NIH Swiss mice were given an intraperitoneal injection of 1.5 mg/kg Oleic Acid of (in this example formulated in saline) and/or invention compounds.
compound,measurement,setting,value
"Nc1ncnc2nc(-c3ccc(O)cc3)c(-c3ccc(O)cc3)nc12.O=S(=O)(O)O [compound A, 6,7-bis(4-hydroxyphenyl)-pteridin-4-ylamine sulfate salt]",inhibition of angiogenesis in vivo,[1],successfully inhibited angiogenesis in vivo
O=C(O)c1ccccc1C(=O)Nc1ccccc1-c1cc2ccccc2[nH]1 [compound D],impact on IL-2 induced T-cell proliferation,[2]; in the 1 mg/kg range as printed,no significant impact
same,Infarct area in mm^3 (mean ± SEM),[3],15.6 ± 5.16 mm^3
same,% Infarct reduction,[3],63%
same,reduction of VLS in the heart,[4],> 100%
same,reduction of VLS in the spleen,[4],> 100%
same,reducing VLS in vivo,[4],80-100%
"O=C(Nc1cc2ccccc2[nH]1)c1cc(O)c(O)c(O)c1 [3,4,5-Trihydroxy-N-(1H-indol-2-yl)-benzamide]",Score with histamine as agonist (scale of 0-12),[5],7
"Cc1ccc(-c2nn(C(C)(C)C)c3ncnc(N)c23)cc1 [PP1, reference compound]",% Infarct reduction,[3],Not significant
"O=C(Nc1ccccc1-c1cc2ccccc2[nH]1)c1cc(O)c(O)c(O)c1 [3,4,5-Trihydroxy-N-[2-(1H-indol-2-yl)-phenyl]-benzamide]",Score with histamine as agonist (scale of 0-12),[5],7
"CN(C)S(=O)(=O)c1ccc2c(c1)/C(=C/c1cc3c([nH]1)CCCC3)C(=O)N2 [SU6656, reference compound]",Infarct area in mm^3 (mean ± SEM),[3],24.3 ± 5.3 mm^3
same,% Infarct reduction,[3],Not significant
"Oc1ncnc2nc(-c3ccccc3)c(-c3ccccc3)nc12 [6,7-Diphenyl-pteridin-4-ol]",Score with histamine as agonist (scale of 0-12),[5],4
"Nc1ncnc2nc(-c3ccc(O)c(O)c3)c(-c3ccc(O)c(O)c3)nc12 [compound F, 4-[4-amino-6-(3,4-dihydroxyphenyl)pteridin-7-yl]benzene-1,2-diol]",reduction of ARDS-induced edema,[6],> 100%
Nc1nc(N)c2nc(-c3cccc(O)c3)c(-c3cccc(O)c3)nc2n1.O=S(=O)(O)O [compound E],impact on IL-2 induced T-cell proliferation,[2]; in the therapeutic range (< 1pM),no significant impact
same,reduction of VLS in the heart,[4],> 100%
same,reduction of VLS in the spleen,[4],> 100%
same,reducing VLS in vivo,[4],80-100%
